Test results published in patent US20080227713A1, “Oxidized Human Bnp” (priority 2005, published 2008).
Marks after values point to notes of the source that are not given here.

How the values were obtained:
[1] = Plasma peptide levels (EIA) during dose-escalating continuous intravenous infusion in conscious rabbits; assay type: in vivo; conditions: rabbit; for Plasma steady state concentration: n = 6
From the text: (§1) New Zealand White male rabbits (R & R Rabbitry, WA) weighing 2.5 to 3.0 kg, were used in the study. Upon receipt, the animals were allowed a 1-week acclimation period at the animal facility to ensure proper health status prior to the study. On the day of the study, the rabbits were weighed and placed in an open top plexiglass restrainers with adjustable plexiglass and nylon covers. The ears were shaved, 2% Lidocaine HCl (Xylocalne jelly, Astra, Westborough, Mass.) was applied topically on the surface of the ears, and IV catheters (Angiocath, Becton Dickinson, Utah) fitted with heparin locks were inserted into the intermedial branch of the peripheral ear vein for drug administration and into the central ear artery for repeated blood sampling.
(§2) Blood samples were drawn 20 minutes prior to and 0, 50, 55, 60, 110, 115, 120, 170, 175, and 180 minutes following initiation of the infusion. […] Blood samples were taken at 20 minutes prior to dosing, immediately prior to dosing and 5, 10, 15, 30, 60, and 90 minutes after dosing. Blood samples (3 mL) was drawn at each time point and the volume replaced with an equal volume of 0.9% NaCl. Blood was collected into EDTA coated tubes containing aprotinin (150 kallikrein inhibitory units/tube) and centrifuged immediately.
(§3) The plasma samples were diluted appropriately with pooled normal rabbit plasma prior to assay. […] Levels of the biotinylated probe were measured by using a sensitive enzyme based detection system, avidin-HRP, and a […] that provided a colorimetric endpoint.

[2] = Plasma peptide levels (EIA) after a single intravenous bolus in conscious rabbits; conditions: male, New Zealand White, in vivo, 30 ug/kg, rabbit, single iv bolus 30 μg/kg, n = 4
From the text: as §1, §2, §3

[3] = test system: plasma cyclic GMP; assay: Plasma cyclic GMP during dose-escalating continuous intravenous infusion in conscious rabbits; assay type: in vivo; conditions: rabbit; for Mean Plasma Cyclic GMP ± SD: n = 6
From the text: as §1, §2
(§4) Plasma cyclic GMP levels were determined by radioimmunoassay (DuPont, Boston, Mass.). […] Separation of the bound from free antigen was performed using a pre-reacted primary and secondary antibody complex. Prior to the assay, the plasma samples were extracted with ethanol and the supernate evaporated to dryness in a speed vac concentrator (Savant Instruments, Holbrook, N.Y.). The dried samples were reconstituted with sodium acetate buffer. Plasma cyclic GMP levels were determined by interpolation from the standard curve (0.01 to 10 pmol/mL).

[4] = test system: plasma cyclic GMP; assay: Plasma cyclic GMP after a single intravenous bolus in conscious rabbits; assay type: in vivo; conditions: rabbit, single iv bolus 30 μg/kg, n = 4
From the text: as §1, §2, §4

In the case of `CC[C@H](C)[C@@H]1NC(=O)[C@H](CCCNC(=N)N)NC(=O)[C@H](CC(=O)O)NC(=O)[C@H](CCSC)NC(=O)[C@H](CCCCN)NC(=O)[C@H](CCCNC(=N)N)NC(=O)CNC(=O)[C@H](Cc2ccccc2)NC(=O)[C@@H](NC(=O)CNC(=O)[C@H](CO)NC(=O)CNC(=O)[C@H](CCC(N)=O)NC(=O)[C@@H](NC(=O)[C@H](CCSC)NC(=O)[C@H](CCCCN)NC(=O)[C@@H]2CCCN2C(=O)[C@@H](N)CO)C(C)C)CSSC[C@@H](C(=O)N[C@@H](CCCCN)C(=O)N[C@H](C(=O)N[C@@H](CC(C)C)C(=O)N[C@@H](CCCNC(=N)N)C(=O)N[C@@H](CCCNC(=N)N)C(=O)N[C@@H](Cc2c[nH]cn2)C(=O)O)C(C)C)NC(=O)CNC(=O)[C@H](CC(C)C)NC(=O)CNC(=O)[C@H](CO)NC(=O)[C@H](CO)NC(=O)[C@H](CO)NC(=O)[C@H](CO)NC1=O` [hBNP, Ser^1-Pro^2-Lys^3-Met^4-Val^5-Gln^6-Gly^7-Ser^8-Gly^9-Cys^10-Phe^11-Gly^12-Arg^13-Lys^14-Met^15-Asp^16-Arg^17-Ile^18-Ser^19-Ser^20-Ser^21-Ser^22-Gly^23-Leu^24-Gly^25-Cys^26-Lys^27-Val^28-Leu^29-Arg^30-Lys^31-His^32], the level at 50 min ([1]; male, New Zealand White, plasma, 0.05 ug/kg/min, iv infusion 0.05 μg/kg/min, 50 min, N = 6) is reported as 1.39 ng/mL, the level at 55 min ([1]; male, New Zealand White, plasma, 0.05 ug/kg/min, iv infusion 0.05 μg/kg/min, 55 min, N = 6) is reported as 1.28 ng/mL and the level at 1 h ([1]; male, New Zealand White, plasma, 0.05 ug/kg/min, iv infusion 0.05 μg/kg/min, 60 min, N = 6) is reported as 1.29 ng/mL. The level at 110 min ([1]; male, New Zealand White, plasma, 0.1 ug/kg/min, iv infusion 0.1 μg/kg/min, 110 min, N = 6) was 3.85 ng/mL, the level at 115 min ([1]; male, New Zealand White, plasma, 0.1 ug/kg/min, iv infusion 0.1 μg/kg/min, 115 min, N = 6) was 3.7 ng/mL and the level at 2 h ([1]; male, New Zealand White, plasma, 0.1 ug/kg/min, iv infusion 0.1 μg/kg/min, 120 min, N = 6) was 2.75 ng/mL. The level at 170 min ([1]; male, New Zealand White, plasma, 0.2 ug/kg/min, iv infusion 0.2 μg/kg/min, 170 min, N = 6) was 7.4 ng/mL, the level at 175 min ([1]; male, New Zealand White, plasma, 0.2 ug/kg/min, iv infusion 0.2 μg/kg/min, 175 min, N = 6) was 8.07 ng/mL and the level at 3 h ([1]; male, New Zealand White, plasma, 0.2 ug/kg/min, iv infusion 0.2 μg/kg/min, 180 min, N = 6) was 6.59 ng/mL. For the same compound, the level at 0 h ([1]; male, New Zealand White, plasma, iv, 0 ug/kg/min, 0 μg/kg/min (before infusion), 0 min, N = 6) was 0.146 ng/mL, the level at -20 min ([1]; male, New Zealand White, plasma, iv, 0 ug/kg/min, 0 μg/kg/min (before infusion), −20 min, N = 6) was 0.166 ng/mL and the “Plasma steady state concentration” value ([1]; infusion rate 0.05 μg/kg/min) was 1319 ± 615 pg/mL. The “Plasma steady state concentration” value ([1]; infusion rate 0.1 μg/kg/min) was 3434 ± 952 pg/mL, the “Plasma steady state concentration” value ([1]; infusion rate 0.2 μg/kg/min) was 7357 ± 1569 pg/mL and the level at 5 min ([2]; 5 min) was 50.1 ng/mL. For the same compound, the level at 10 min ([2]; 10 min) was 12 ng/mL, the level at […] ([2]; 15 min) was 4.67 ng/mL and the level at 0.5 h ([2]; 30 min) was 1.21 ng/mL. For the same compound, the level at 1 h ([2]; 60 min) was 0.122 ng/mL, the level at […] ([2]; 90 min) was 0.051 ng/mL and the “Mean Plasma Cyclic GMP ± SD” value ([3]; 0 μg/kg/min (saline), 0 min) was 30 ± 16 pmol/mL. For the same compound, the “Mean Plasma Cyclic GMP ± SD” value ([3]; 0 μg/kg/min (saline), −20 min) was 34 ± 15 pmol/mL, the “Change of plasma cyclic GMP during continuous infusion” value ([3]; 0.05, 0.1, 0.2 μg/kg/min, in words) was “dose-related increase in plasma cyclic GMP” and the “Mean Plasma Cyclic GMP ± SD” value ([3]; iv infusion 0.05 μg/kg/min, 50 min) was 68 ± 33 pmol/mL. The “Mean Plasma Cyclic GMP ± SD” value ([3]; iv infusion 0.05 μg/kg/min, 55 min) was 87 ± 29 pmol/mL, the “Mean Plasma Cyclic GMP ± SD” value ([3]; iv infusion 0.05 μg/kg/min, 60 min) was 92 ± 34 pmol/mL and the “Mean Plasma Cyclic GMP ± SD” value ([3]; iv infusion 0.1 μg/kg/min, 110 min) was 131 ± 38 pmol/mL. For the same compound, the “Mean Plasma Cyclic GMP ± SD” value ([3]; iv infusion 0.1 μg/kg/min, 115 min) was 122 ± 35 pmol/mL, the “Mean Plasma Cyclic GMP ± SD” value ([3]; iv infusion 0.1 μg/kg/min, 120 min) was 125 ± 27 pmol/mL and the “Mean Plasma Cyclic GMP ± SD” value ([3]; iv infusion 0.2 μg/kg/min, 170 min) was 159 ± 37 pmol/mL. The “Mean Plasma Cyclic GMP ± SD” value ([3]; iv infusion 0.2 μg/kg/min, 175 min) was 170 ± 43 pmol/mL, the “Mean Plasma Cyclic GMP ± SD” value ([3]; iv infusion 0.2 μg/kg/min, 180 min) was 145 ± 31 pmol/mL and the “Plasma Cyclic GMP” value ([4]; 0 min (before dosing)) was 47 pmol/mL. The “Plasma Cyclic GMP” value ([4]; 5 min) was 201* pmol/mL, the “Plasma Cyclic GMP” value ([4]; 10 min) was 214* pmol/mL and the “Plasma Cyclic GMP” value ([4]; 15 min) was 189* pmol/mL. The “Plasma Cyclic GMP” value ([4]; 30 min) was 146 pmol/mL, the “Plasma Cyclic GMP” value ([4]; 60 min) was 65 pmol/mL and the “Plasma Cyclic GMP” value ([4]; 90 min) was 40 pmol/mL. The “Plasma Cyclic GMP” value ([4]; −20 min (before dosing)) was 46 pmol/mL.
